What is called IC50 is the concentration needed to halve the response being measured. Low readings indicate greater potency in that assay, high ones weaker potency in that assay.

Molecules are shown by their SMILES.

Among the data in patent publication US8569294B2, “2-(cyclic amino)-pyrimidone derivatives” (Mitsubishi Tanabe Pharma Corporation, priority 2006, dated 2013) are IC50 values, retold here.

T1 sequence (A0A3Q1MT31 1-419): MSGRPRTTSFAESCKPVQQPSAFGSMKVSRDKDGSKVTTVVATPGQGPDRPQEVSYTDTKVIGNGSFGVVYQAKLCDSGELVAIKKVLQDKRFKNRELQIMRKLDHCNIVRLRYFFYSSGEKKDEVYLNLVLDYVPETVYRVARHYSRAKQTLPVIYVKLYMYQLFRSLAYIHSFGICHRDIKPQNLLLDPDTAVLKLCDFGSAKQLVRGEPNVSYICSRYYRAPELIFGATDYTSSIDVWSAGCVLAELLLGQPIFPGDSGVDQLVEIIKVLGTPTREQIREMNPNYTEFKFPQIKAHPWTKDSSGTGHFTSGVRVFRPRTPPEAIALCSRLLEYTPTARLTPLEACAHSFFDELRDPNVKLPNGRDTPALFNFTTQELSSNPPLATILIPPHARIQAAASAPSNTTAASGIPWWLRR

This test has as its target T1, bovine cerebral TPK1 (Bos taurus, UniProt A0A3Q1MT31).
T1 construct: P-GS1 Phosphorylation by Bovine Cerebral TPK1; from tissue; host or cells: bovine cerebrum (brain)
Nature of the test: Inhibitory activity against P-GS1 phosphorylation by bovine cerebral TPK1. The format is biochemical. To be noted: 41.7 μM [γ-32P] ATP, 25° C., 2 hours. On the procedure:
Inhibitory Activity of the Medicament of the Present Invention Against P-GS1 Phosphorylation by Bovine Cerebral TPK1
A mixture containing 100 mM MES-sodium hydroxide (pH 6.5), 1 mM magnesium acetate, 0.5 mM EGTA, 5 mM β-mercaptoethanol, 0.02% Tween 20, 10% glycerol, 12 μg/ml P-GS1, 41.7 μM [γ-^32P] ATP (68 kBq/ml), bovine cerebral TPK1 and a compound shown in Table (a final mixture contained 1.7% DMSO deriving from a solution of a test compound prepared in the presence of 10% DMSO) was used as a reaction system. The phosphorylation was started by adding ATP, and the reaction was conducted at 25° C. for 2 hours, and then stopped by adding 21% perchloric acid on ice cooling. The reaction mixture was centrifuged at 12,000 rpm for 5 minutes and adsorbed on P81 paper (Whatmann), and then the paper was washed four times with 75 mM phosphoric acid, three times with water and once with acetone. The paper was dried, and the residual radioactivity was measured using a liquid scintillation counter.
Consider `Cn1c(N2C3CCCC2CC3)nc(-c2ccncc2F)cc1=O` [B77], for which the concentration for half-maximal inhibition (IC50) amounted to 9.8 nM. As for `C[C@@H]1CN(c2ccccc2)CCN1c1nc(-c2ccncn2)cc(=O)n1C` [F24], the figure is 1.4 nM; as for `Cn1c(N2CCCC2Cc2ccccc2)nc(-c2ccncc2F)cc1=O` (centres unmarked) [D95], 5.6 nM; as for `C[C@@H]1COCCN1c1nc(-c2ccncc2F)cc(=O)n1C` [B62], 7 nM.

In turn, `Cn1c(N2CC3CCC2C(c2ccccc2)C3)nc(-c2ccncc2)cc1=O` (centres unmarked) [B9] came in with an IC50 of 1.2 nM. To `Cn1c(N2CCO[C@H]3c4ccccc4OC[C@H]32)nc(-c2ccncn2)cc1=O` [B46] belongs 2.5 nM. As for `C[C@H](N)c1nc(-c2ccc(N3CCN(c4nc(-c5ccncc5)cc(=O)n4C)[C@H](C)C3)cc2)no1` [F148], the figure is 2.6 nM. As for `COc1ccccc1NC1CC2CCC(C1)N2c1nc(-c2ccncc2F)cc(=O)n1C` (centres unmarked) [B16], the figure is 2.8 nM; as for `C[C@@H]1CN(C(=O)c2ccc(N(C)C)cc2)CCN1c1nc(-c2ccncn2)cc(=O)n1C` [F69], 2.4 nM.

Take `COc1ccc2c(c1)CC[C@H]1[C@H]2OCCN1c1nc(-c2ccncc2F)cc(=O)n1C` [B20]: the 50% inhibitory concentration (IC50) turned out to be 1.1 nM. As for `Cn1c(N2CCO[C@H]3CCCC[C@@H]32)nc(-c2ccncn2)cc1=O` (racemic) [B69, 1-Methyl-2-((4aRS,8aRS)-trans-octahydro-benzo[1,4]oxazin-4-yl)-1H-[4,4′]bipyrimidinyl-6-one], the figure is 4 nM; as for `COc1cccc(N[C@@H]2CCN(c3nc(-c4ccncn4)cc(=O)n3C)C2)c1` [D42], 7.9 nM; as for `Cn1c(N2CCN3CCc4ccccc4C3C2)nc(-c2ccncc2)cc1=O` (centres unmarked) [B109, 2-(1,3,4,6,7,11b-Hexahydro-pyrazino[2,1-a]isoquinolin-2-yl)-3-methyl-6-pyridin-4-yl-3H-pyrimidin-4-one], 14 nM. Turning to `Cn1c(N2CCO[C@H]3c4ccccc4CC[C@@H]32)nc(-c2ccncc2F)cc1=O` [B6], half-maximal inhibition (IC50) required 1.7 nM. As for `COc1ccccc1N1C[C@@H]2CN(c3nc(-c4ccncc4F)cc(=O)n3C)C[C@@H]2C1` [D16], the figure is 14 nM.

`C[C@@H]1CN(c2ncccn2)CCN1c1nc(-c2ccncc2F)cc(=O)n1C` [F56] came in with an IC50 of 2.2 nM. For `COc1cccc2c1CC[C@@H]1[C@H]2OCCN1c1nc(-c2ccncc2)cc(=O)n1C` [B37], the concentration for half-maximal inhibition (IC50) was found to be 1.5 nM.
